Target: human GSK3β (Homo sapiens, UniProt P49841)
Assay: Screening for GSK3 inhibitory activity using a cell-free assay
Assay type: biochemical
Settings: read-out: IC50 with respect to GSK3
How it was run: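 Compounds in DMSO were tested against human GSK3β over a three-hour kinase reaction. Radiolabeled phosphate transferred to the peptide was captured on streptavidin plates after EDTA/ATP stop and quantified by scintillation counting. Signal was plotted versus compound concentration.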

human GSK3β, sequence (P49841 whole entry): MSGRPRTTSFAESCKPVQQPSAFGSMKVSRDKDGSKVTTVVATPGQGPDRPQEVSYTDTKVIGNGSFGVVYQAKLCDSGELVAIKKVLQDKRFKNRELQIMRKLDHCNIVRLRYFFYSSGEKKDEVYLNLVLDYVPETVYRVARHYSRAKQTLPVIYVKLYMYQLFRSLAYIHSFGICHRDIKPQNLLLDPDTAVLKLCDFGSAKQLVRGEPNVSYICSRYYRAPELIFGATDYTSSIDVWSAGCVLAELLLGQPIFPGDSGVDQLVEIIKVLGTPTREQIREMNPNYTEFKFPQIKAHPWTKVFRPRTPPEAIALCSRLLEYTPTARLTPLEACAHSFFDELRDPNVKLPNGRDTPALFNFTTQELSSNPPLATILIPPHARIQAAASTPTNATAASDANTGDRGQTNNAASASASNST

SMILES	IC50
Oc1ccc(-c2ccnc(NCCCOc3ccc(Cl)cc3)n2)cc1 [4-(2-{[3-(4-chlorophenoxy)propyl]amino}pyrimidin-4-yl)phenol]	≤ 10000 nM
COc1cc(CNc2nccc(-c3ccc(C(N)=O)cc3)n2)cc(OC)c1OC [4-(2-{[(3,4,5-trimethoxyphenyl)methyl]amino}pyrimidin-4-yl)benzamide]	≤ 10000 nM
CCOC(=O)c1cnc(NCCNc2ccc([N+](=O)[O-])c(N)n2)nc1-c1ccc(C#N)cc1 [ethyl 2-({2-[(6-amino-5-nitro(2-pyridyl))amino]ethyl}amino)-4-(4-cyanophenyl)pyrimidine-5-carboxylate]	≤ 1000 nM
O=[N+]([O-])c1ccc(NCCNc2ccc(-n3ccnc3)c(-c3ccc(Cl)cc3Cl)n2)nc1 [[6-(2,4-dichlorophenyl)-5-imidazolyl(2-pyridyl)]{2-[(5-nitro(2-pyridyl))amino]ethyl}amine]	≤ 1000 nM
COCCNc1nc(NCCNc2ccc([N+](=O)[O-])cn2)ccc1[N+](=O)[O-] [{6-[(2-methoxyethyl)amino]-5-nitro(2-pyridyl)}{2-[(5-nitro(2-pyridyl))amino]ethyl}amine]	≤ 10000 nM
NC(=O)c1ccc(-c2ccnc(NCCCOc3cccc(Br)c3)n2)cc1 [4-(2-{[3-(3-bromophenoxy)propyl]-amino}pyrimidin-4-yl)benzamide]	≤ 10000 nM
NS(=O)(=O)c1ccc(-c2ccnc(NCCNc3ccc([N+](=O)[O-])cn3)n2)cc1 [4-[2-({2-[(5-nitro-2-pyridyl)amino]ethyl}amino)pyrimidin-4-yl]benzenesulfonamide]	≤ 10000 nM
NC(=O)c1ccc(-c2ccnc(NCCNc3ccc(C(N)=S)cn3)n2)cc1 [4-{2-[(2-{[5-(aminothioxomethyl)-2-pyridyl]amino}ethyl)amino]pyrimidin-4-yl}benzamide]	≤ 1000 nM
N#Cc1ccc(NCCNc2ccc(-n3ccnc3)c(-c3ccc(Cl)cc3Cl)n2)nc1 [6-[(2-{[6-(2,4-dichlorophenyl)-5-imidazolyl-2-pyridyl]amino}ethyl)amino]pyridine-3-carbonitrile]	≤ 1000 nM
CCOC(=O)c1cnc(NCCNc2ccc([N+](=O)[O-])cn2)nc1-c1ccc(Cl)cc1 [ethyl 4-(4-chlorophenyl)-2-({2-[(5-nitro(2-pyridyl))amino]ethyl}amino)pyrimidine-5-carboxylate]	≤ 1000 nM
CN(C)CCc1noc(-c2cnc(NCCNc3ccc([N+](=O)[O-])c(N)n3)nc2-c2ccc(Cl)cc2Cl)n1 [(2-{5-[2-({2-[(6-amino-5-nitro(2-pyridyl))amino]-ethyl}amino)-4-(2,4-dichlorophenyl)pyrimidin-5-yl](1,2,4-oxadiazol-3-yl)}ethyl)-dimethylamine]	≤ 1000 nM
Cn1ccnc1-c1cnc(NCCNc2ccc([N+](=O)[O-])c(N)n2)nc1-c1ccc(Cl)cc1Cl [{2-[(6-amino-5-nitro(2-pyridyl))amino]ethyl}[4-(2,4-dichlorophenyl)-5-(1-methylimidazol-2-yl)pyrimidin-2-yl]amine]	≤ 1000 nM
CC(C)(C)NC(=O)c1cnc(NCCNc2ccc([N+](=O)[O-])cn2)nc1-c1ccc(C#N)cc1 [N-(tert-butyl)[4-(4-cyano-phenyl)-2-({2-[(5-nitro(2-pyridyl))amino]ethyl}amino)pyrimidin-5-yl]carboxamide]	≤ 1000 nM
CCOC(=O)c1cnc(NCCNc2ccc([N+](=O)[O-])c(NC)n2)nc1-c1ccc(C#N)cc1 [ethyl 4-(4-cyanophenyl)-2-[(2-{[6-(methylamino)-5-nitro(2-pyridyl)]amino}ethyl)amino]pyrimidine-5-carboxylate]	≤ 10000 nM
CCc1ccc(-c2nc(NCCNc3ccc([N+](=O)[O-])c(N)n3)ncc2-n2ccnc2)cc1 [{2-[(6-amino-5-nitro(2-pyridyl))amino]ethyl}[4-(4-ethylphenyl)-5-imidazolylpyrimidin-2-yl]amine]	≤ 1000 nM
CCCCOC(=O)c1cnc(NCCNc2ccc([N+](=O)[O-])cn2)nc1-c1ccc(C#N)cc1 [butyl 4-(4-cyanophenyl)-2-({2-[(5-nitro(2-pyridyl))amino]ethyl}amino)pyrimidine-5-carboxylate]	≤ 1000 nM
NC(=O)c1ccc(-c2ccnc(NCc3ccc(N)cc3)n2)cc1 [4-(2-{[(4-aminophenyl)methyl]amino}-pyrimidin-4-yl)benzamide]	≤ 10000 nM
CCOC(=O)c1cnc(NCCNc2ccc([N+](=O)[O-])cn2)nc1-c1cccc(C(F)(F)F)c1 [ethyl 2-({2-[(5-nitro(2-pyridyl))amino]ethyl}amino)-4-[3-(trifluoromethyl)phenyl]pyrimidine-5-carboxylate]	≤ 10000 nM
NC(=O)c1ccc(-c2ccnc(NCCCOc3ccc4ncccc4c3)n2)cc1 [4-{2-[(3-(6-quinolyloxy)propyl)-amino]pyrimidin-4-yl}benzamide]	≤ 10000 nM
CNCc1cccc(-c2cccc(CNc3nccc(-c4ccc(C(N)=O)cc4)n3)c2)c1 [4-(2-{[(3-{3-[(methylamino)methyl]phenyl}-phenyl)methyl]amino}pyrimidin-4-yl)benzamide]	≤ 10000 nM

SMILES	IC50
CCOC(=O)c1cnc(NCCNc2ccc([N+](=O)[O-])cn2)nc1-c1ccc(C)c(C)c1 [ethyl 4-(3,4-dimethylphenyl)-2-[{2-[(5-nitro(2-pyridyl))amino]ethyl}amino)pyrimidine-5-carboxylate]	≤ 10000 nM
O=c1ccccn1-c1cnc(NCCNc2ccc([N+](=O)[O-])cn2)nc1-c1ccc(Cl)cc1Cl	≤ 1000 nM
O=C(NCc1cccc(Br)c1)c1ccc(-c2ccnc(NCCCNc3ccc([N+](=O)[O-])cn3)n2)cc1 [N-[(3-bromophenyl)methyl]{4-[2-({3-[(5-nitro(2-pyridyl))-amino]propyl}amino)pyrimidin-4-yl]phenyl}carboxamide]	≤ 10000 nM
NC(=O)C(Cc1ccccc1)NC(=O)c1ccc(-c2ccnc(NCCc3ccccn3)n2)cc1 (stereo not shown) [N-(1-carbamoyl-2-phenyl-ethyl)(4-{2-[(2-(2-pyridyl)ethyl)amino]pyrimidin-4-yl}phenyl)carboxamide]	≤ 10000 nM
Nc1nc(NCCNc2ccc([N+](=O)[O-])c(-c3ccc(Cl)cc3Cl)n2)ccc1[N+](=O)[O-] [{2-[(6-amino-5-nitro(2-pyridyl))amino]ethyl}[6-(2,4-dichlorophenyl)-5-nitro(2-pyridyl)]amine]	≤ 1000 nM
CN(C)C1CC(=O)N(c2cnc(NCCNc3ccc([N+](=O)[O-])c(N)n3)nc2-c2ccc(Cl)cc2Cl)C1=O (stereo not shown) [1-[2-({2-[(6-amino-5-nitro(2-pyridyl))amino]ethyl}amino)-4-(2,4-dichlorophenyl)pyrimidin-5-yl]-3-(dimethylamino)pyrrolidine-2,5-dione]	≤ 1000 nM
CCOC(=O)c1cnc(NCCNc2ccc(C(F)(F)F)cn2)nc1-c1ccc(C#N)cc1 [ethyl 4-(4-cyanophenyl)-2-[(2-{[5-(trifluoromethyl)(2-pyridyl)]amino}ethyl)-amino]pyrimidine-5-carboxylate]	≤ 1000 nM
O=C(NCC1CCCO1)c1ccc(-c2ccnc(NCCNc3ccc([N+](=O)[O-])cn3)n2)cc1 (stereo not shown) [{4-[2-({2-[(5-nitro(2-pyridyl))amino]ethyl}amino)pyrimidin-4-yl]phenyl}-N-(oxolan-2-ylmethyl)carboxamide]	≤ 10000 nM
NC(=O)c1ccc(-c2ccnc(NCc3ccc(Cl)cc3Cl)n2)cc1 [4-(2-{[(2,4-dichlorophenyl)methyl]-amino}pyrimidin-4-yl)benzamide]	≤ 10000 nM
CCOC(=O)c1cnc(NCCNc2ncc([N+](=O)[O-])c(N)n2)nc1-c1ccc(C#N)cc1 [ethyl 2-({2-[(4-amino-5-nitropyrimidin-2-yl)amino]ethyl}amino)-4-(4-cyanophenyl)pyrimidine-5-carboxylate]	≤ 1000 nM
CCOC(=O)c1cnc(NCCNc2cc(C)c([N+](=O)[O-])cn2)nc1-c1ccc(C#N)cc1 [ethyl 4-(4-cyanophenyl)-2-({2-[(4-methyl-5-nitro(2-pyridyl))amino]ethyl}amino)pyrimidine-5-carboxylate]	≤ 1000 nM
CCOC(=O)c1cnc(NCCNc2ccc([N+](=O)[O-])cc2)nc1-c1ccc(C#N)cc1 [ethyl 4-(4-cyanophenyl)-2-({2-[(4-nitrophenyl)amino]ethyl}amino)-pyrimidine-5-carboxylate]	≤ 1000 nM
N#Cc1cnc(NCCNc2nccc(-c3ccc(C(N)=O)cc3)n2)nc1N [4-[2-({2-[(4-amino-5-cyano-pyrimidin-2-yl)amino]ethyl}amino)pyrimidin-4-yl]benzamide]	≤ 1000 nM
CCOC(=O)c1cnc(NCCNc2ccc(C(=O)OC)cn2)nc1-c1ccc(C#N)cc1 [methyl 6-[(2-{[4-(4-cyanophenyl)-5-(ethoxycarbonyl)pyrimidin-2-yl]amino}ethyl)amino]pyridine-3-carboxylate]	≤ 10000 nM
COc1ccc(OC)c(CCNc2nccc(-c3ccc(C(N)=O)cc3)n2)c1 [4-(2-{[2-(2,5-dimethoxyphenyl)ethyl]amino}pyrimidin-4-yl)benzamide]	≤ 1000 nM
NC(=O)c1ccc(-c2ccnc(NCc3cccc(C(F)(F)F)c3)n2)cc1 [4-[2-({[3-(trifluoromethyl)phenyl]methyl}amino)pyrimidin-4-yl]-benzamide]	≤ 10000 nM
Cc1cn(-c2ccccc2)nc1-c1ccnc(NCCNc2ccccn2)n1 [[4-(4-methyl-1-phenylpyrazol-3-yl)pyrimidin-2-yl][2-(2-pyridyl-amino)ethyl]amine]	≤ 10000 nM
Nc1nc(NCCNc2ncc(-n3cnc(-c4ccccc4)c3)c(-c3ccc(Cl)cc3Cl)n2)ccc1[N+](=O)[O-] [{2-[(6-amino-5-nitro(2-pyridyl))amino]ethyl}[4-(2,4-dichlorophenyl)-5-(4-phenylimidazolyl)pyrimidin-2-yl]amine]	≤ 1000 nM
CCOC(=O)c1cnc(NCCNc2ccc([N+](=O)[O-])cn2)nc1-c1ccc(Cl)cc1Cl [ethyl 4-(2,4-dichlorophenyl)-2-({2-[(5-nitro(2-pyridyl))amino]ethyl}amino)-pyrimidine-5-carboxylate]	≤ 1000 nM
N#Cc1ccc(-c2nc(NCCNc3ccc([N+](=O)[O-])cn3)nc(-c3ccoc3)c2C(=O)O)cc1 [4-(4-cyanophenyl)-6-(3-furyl)-2-({2-[(5-nitro(2-pyridyl))-amino]ethyl}amino)pyrimidine-5-carboxylic acid]	≤ 1000 nM
